From patent publication US20180064811A1, “PHARMACEUTICAL COMBINATIONS COMPRISING CD33 ANTIBODIES AND DE-METHYLATING AGENTS” (Boehringer Ingelheim International GmbH, priority 2013, published 2018)

Test system: HL60 cells
Assay: ADCC (LDH release) of CD33 antibody CD33-1 with PBMC effector cells pre-treated with de-methylating agents
Format: cell-based, human
Conditions: for Relative Cytolysis (%): ADCC of CD33-1 on HL60 target cells, human PBMC effector cells pre-treated with 100 nM de-methylating agent for 3 to 6 days, E:T 25:1, relative to untreated PBMC (100), 3 independent assays; for impact on ADCC of mAb 33-1: effector cells (PBMC) treated with 100 nM for 3 to 6 days, compared with untreated effector cells
Procedure: The ability CD33 antibodies to mediate antibody-dependent cell-mediated cytotoxicity (ADCC) in the presence of effector cells pre-treated with demethylating agents is assessed using HL60 cells as target cells and human PBMCs as effector cells.
Preparation of target cells (HL-60 acute myeloid leukemia, DSMZ #ACC3)
An aliquot of the cell culture at a cell density between 1.5×10^6/m1 and 1.8×10^6/m1 and growing in the log-phase is centrifuged (200×g, i.e. 1000 rpm) for 10 min. Cells are washed once with washing medium (RPMI 1640 w/o L-glutamine) and pelleted (200×g, i.e. 1000 rpm; 10 min). Cell pellet is suspended in assay medium (1% BSA; AlbuMAX II (Gibco 11021-037)) and cell count is determined. Cell concentration is adjusted to 2×10^5/ml.
Approximately 100 ml whole blood drawn from healthy donors is used for the isolation of PBMC. 10 ml whole blood are diluted 1:3.6 with 26 ml HBSS (Gibco 14170-088; Paisley, Scotland) in a 50 ml tube. 18 ml diluted whole blood is layered on top of 12 ml Lymphoprep (Nycomed Pharma AS 1053980) in a 50 ml tube and centrifuged at 370×g (1400 rpm) for 35 min. The mononuclear cells from the interface are aspirated and washed first with HBSS (750×g, i.e. 1900 rpm; 10 min), then a second time with HBSS (300×g, i.e. 1200 rpm; 10 min) and finally with HBSS (160×g, i.e. 900 rpm; 10 min). The pelleted cells are gently suspended in culture medium/assay medium (10% heat-inactivated human AB serum in RPMI 1640 w/o L-glutamine) using a pipette and the cell count is determined in the cell counter. The PBMC concentration is adjusted to 1×10^7/ml.
The freshly isolated PBMC (5×10^5/m1) are pre-treated with de-methylating agents in culture medium (RPMI 1640 w/o L-glutamine supplemented with 10% human AB serum and decitabine or 5-azacytidine at a final concentration of 100 nM) in a tissue culture flask (75 cm^2) at 37° C. in CO2 incubator for 3 to 6 days. De-methylating agent treated PBMC are separated from cell debris on a Lymphoprep gradient. The purified de-methylating agent treated PBMC are suspended in culture medium/assay medium ata concentration of 1×10^7/ml.
For all tested cell lines an E:T ratio of 25:1 is used. The co-cultivation of effector cells with target cells in presence of test antibody is performed in quadruplicates in 96-well round-bottom microtiter plates (Costar #3799) in a final volume of 200 μl assay medium per well consisting of 10% human AB serum and 1% BSA in RPMI in 1:1 ratio. In each experimental run two plates are assayed in parallel. First effector cells (PBMC cells in 100 μl 10% human AB serum in RPMI per well) are plated, followed by target cells (in 50 μl 1% BSA in RPMI per well) and antibody solution (candidate antibody diluted in 50 μl 1% BSA in RPMI). As a control, effector cells are cultivated in assay medium alone (effector cell control) and target cells are cultivated either in assay medium alone (spontaneous lysis) or in assay medium supplemented with 1% Triton X-100 (maximal lysis). The co-culture is incubated at 37° C. in a humid CO^2 incubator for 3 to 4 hours.
At the end of the incubation cells are removed from the culture medium by centrifugation (200×g, i.e. 1000 rpm; 10 min) at room temperature. Cell free supernatants (100 μl/well) are transferred into corresponding wells of a 96-well flat-bottom plate (Costar #3595). To determine the LDH activity in these supernatants 100 μl reaction mixture (freshly mixed 250 μl catalyst with 11.25 ml dye solution) are added to each well and incubated 30 min at room temperature in the dark. Then the absorbance is measured as described below.
Cytotoxicity Detection Kit (LDH Roche #11 644 793 001) is used to determine ADCC activity. The assay is based on the measurement of LDH enzyme activity released from plasma membrane-damaged cells. LDH released into the culture supernatants reduces the tetrazolium salt from the kit to formazan. […]

Row | Structure (SMILES) | Relative Cytolysis (%) | Relative Cytolysis (%) (listed as 5-azacytidine) | impact on ADCC of mAb 33-1 | Relative Cytolysis (%) (listed as decitabine)
1 | Nc1ncn([C@@H]2O[C@H](CO)[C@@H](O)[C@H]2O)c(=O)n1 [5-Azacitidine, 4-amino-1-β-D-ribofuranosyl-1,3,5-triazin-2(1H)-one] | 107 | 98 | did not significantly impact | –
2 | Nc1ncn([C@H]2C[C@H](O)[C@@H](CO)O2)c(=O)n1 [Decitabine, 4-Amino-1-(2-deoxy-β-D-erythro-pentofuranosyl)-1,3,5-triazin-2(1H)-one] | 98 | – | did not significantly impact | 107
